We go through 5 compounds from patent US20160355530A1, “HEPATITIS C INHIBITORS AND USES THEREOF” (AbbVie Inc., priority 2010, published 2016).

In general, EC50 refers to the concentration giving half of the maximal effect. For orientation: IC50 means the concentration at which inhibition is half-maximal.

The test system of assay [1] is HCV 1a-H77 subgenomic replicon. Kind of assay: microbe, parasite or virus in culture. It is filed as cell-based, HCV genotype 1a. As to conditions: Hepatitis C virus, stable replicon. (In antiviral work, replicon cells carry a viral genome segment that copies itself.)
Assay [2] has as its system HCV 1b-BB7 subgenomic replicon. Put plainly: microbe, parasite or virus in culture. Format: cell-based, HCV genotype 1b. The following applies: Hepatitis C virus, stable replicon.
Assay [3] addresses T1, HCV NS5B polymerase 1a-H77-C316Y (Hepatitis C virus genotype 1a, UniProt P27958, C2736Y).
T1 construct: six-histidine tag; made in house; host or cells: E. coli
Put plainly: biochemical. On the set-up: species or system HCV genotype 1a. A digest of the protocol:
(§1)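 Recombinant NS5B (residues 1–570, His-tagged, E. coli-expressed) copied 5 nM of a 2.1 kb HCV 1b negative-strand 3′-end RNA template with 20 μM CTP, 20 μM ATP and 0.284 μM [3H]UTP for 3 h at 30 °C. Spermine-precipitated RNA was filter-captured and counted, and IC50 was fitted by nonlinear regression.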

The subject of assay [4] is HCV NS5B polymerase 1a-H77-C316Y. Kind of assay: biochemical. On the set-up: species or system HCV genotype 1a. The following applies: ratio of enzyme IC50s, 1a H77-C316Y / 1a H77. In a few lines: as §1
Assay [5] has as its target T2, HCV NS5B polymerase 1a-H77 (Hepatitis C virus genotype 1a, UniProt P27958).
T2 construct: six-histidine tag; made in house; host or cells: E. coli
Put plainly: biochemical. Details: species or system HCV genotype 1a. As to conditions: enzyme, strain 1a H77; read-out: HCV Polymerase Strain 1a H77 IC50. In a few lines: as §1

Assay [6] concerns the target T3, HCV NS5B polymerase 1b BK strain (Hepatitis C virus genotype 1b, UniProt P26663).
T3 construct: six-histidine tag; made in house; host or cells: E. coli
Kind of assay: HCV NS5B polymerase enzymatic inhibition assay, strain 1b BK. Format: biochemical. The following applies: enzyme, strain 1b BK; read-out: HCV Polymerase Strain 1b BK IC50. A digest of the protocol:
as §1

The mark [7] stands for this setting: 5% FBS, absence of human plasma, read-out: Stable Replicon 1a H77 5% FBS EC50.
[8] abbreviates: strain 1a H77, 5% FBS + 40% human plasma, read-out: 1a H77 5% FBS + 40% Human Plasma EC50.
Setting [9] is: strain 1a H77, 5% FBS, no human plasma, read-out: 1a H77 5% FBS EC50.
The mark [10] stands for this setting: strain 1a H77, 5% FBS, read-out: 1a H77 5% FBS EC50.
The mark [11] stands for this setting: strain 1b BB7, 5% FBS + 40% human plasma, read-out: 1b BB7 5% FBS + 40% Human Plasma EC50.
The mark [12] stands for this setting: strain 1b BB7, 5% FBS, no human plasma, read-out: 1b BB7 5% FBS EC50.
The mark [13] stands for this setting: strain 1b BB7, 5% FBS, read-out: 1b BB7 5% FBS EC50.

Where two headings read alike, the source gives them in different places.

T3 sequence (P26663 2420-2989): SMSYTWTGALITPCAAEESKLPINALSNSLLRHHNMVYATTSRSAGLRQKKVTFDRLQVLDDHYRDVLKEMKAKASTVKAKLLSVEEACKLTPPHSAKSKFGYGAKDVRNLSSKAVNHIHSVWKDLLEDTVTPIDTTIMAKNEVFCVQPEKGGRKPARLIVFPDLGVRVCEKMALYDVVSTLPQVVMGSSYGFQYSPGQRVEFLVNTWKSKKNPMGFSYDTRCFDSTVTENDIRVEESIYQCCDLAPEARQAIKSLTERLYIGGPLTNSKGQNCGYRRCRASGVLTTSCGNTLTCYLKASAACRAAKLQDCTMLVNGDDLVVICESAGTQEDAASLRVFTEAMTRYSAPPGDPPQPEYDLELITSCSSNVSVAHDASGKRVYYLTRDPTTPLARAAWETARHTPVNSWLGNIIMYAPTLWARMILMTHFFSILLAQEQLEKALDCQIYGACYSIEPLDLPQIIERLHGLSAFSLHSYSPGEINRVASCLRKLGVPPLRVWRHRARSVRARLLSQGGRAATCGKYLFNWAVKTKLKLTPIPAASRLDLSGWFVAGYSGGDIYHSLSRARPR
T1 sequence (P27958 2421-2990 C2736Y): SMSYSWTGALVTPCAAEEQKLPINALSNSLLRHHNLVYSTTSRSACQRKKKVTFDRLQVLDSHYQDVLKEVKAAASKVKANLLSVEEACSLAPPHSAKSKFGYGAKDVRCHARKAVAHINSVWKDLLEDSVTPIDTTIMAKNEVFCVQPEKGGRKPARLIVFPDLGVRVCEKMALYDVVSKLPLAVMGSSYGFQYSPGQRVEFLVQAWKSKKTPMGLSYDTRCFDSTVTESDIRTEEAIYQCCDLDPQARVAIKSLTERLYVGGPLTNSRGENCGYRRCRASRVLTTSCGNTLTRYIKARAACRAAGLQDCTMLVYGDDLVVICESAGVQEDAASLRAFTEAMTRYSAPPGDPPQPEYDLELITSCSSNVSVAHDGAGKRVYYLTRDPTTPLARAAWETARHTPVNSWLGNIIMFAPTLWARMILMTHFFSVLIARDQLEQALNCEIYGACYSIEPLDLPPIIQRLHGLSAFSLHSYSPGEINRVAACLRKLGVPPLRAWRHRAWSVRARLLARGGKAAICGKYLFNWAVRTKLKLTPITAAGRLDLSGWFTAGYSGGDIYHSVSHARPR
T2 sequence (P27958 2421-2990): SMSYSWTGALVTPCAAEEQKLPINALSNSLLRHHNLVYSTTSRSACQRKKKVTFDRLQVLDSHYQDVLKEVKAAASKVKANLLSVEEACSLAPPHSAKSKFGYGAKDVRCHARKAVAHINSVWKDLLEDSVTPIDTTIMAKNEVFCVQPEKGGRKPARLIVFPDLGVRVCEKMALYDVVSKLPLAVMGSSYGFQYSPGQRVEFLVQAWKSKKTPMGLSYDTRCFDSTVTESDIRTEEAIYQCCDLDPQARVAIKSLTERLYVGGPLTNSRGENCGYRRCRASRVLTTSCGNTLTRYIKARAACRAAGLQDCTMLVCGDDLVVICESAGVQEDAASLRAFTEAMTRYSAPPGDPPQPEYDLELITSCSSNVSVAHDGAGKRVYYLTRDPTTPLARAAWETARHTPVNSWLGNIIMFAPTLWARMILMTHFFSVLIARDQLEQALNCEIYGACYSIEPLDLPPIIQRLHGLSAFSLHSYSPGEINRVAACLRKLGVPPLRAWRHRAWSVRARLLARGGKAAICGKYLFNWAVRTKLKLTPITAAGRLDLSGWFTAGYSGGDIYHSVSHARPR

Consider `CS(=O)(=O)N(CC1CCCO1)c1cc2oc(-c3ccc(F)cc3)c(-c3ncc[nH]3)c2cc1C1CC1` (stereo not drawn) [Example 75, N-[5-cyclopropyl-2-(4-fluorophenyl)-3-(1H-imidazol-2-yl)-1-benzofuran-6-yl]-N-(tetrahydrofuran-2-ylmethyl)methanesulfonamide], for which the EC50 in assay [1] (setting [7]) was found to be 69.6 nM; in assay [1] (setting [8]) it was 1080 nM; in assay [1] (setting [9]), 69.6 nM; in assay [1] (setting [10]), 69.6 nM; in assay [2] (setting [11]) it was 1160 nM; in assay [2] (setting [12]), 45 nM. For the same compound, the EC50 in assay [2] (setting [13]) came to 45 nM. The IC50 in assay [3] was 1600 nM; in assay [5], 6.5 nM; in assay [6], 60 nM. Besides, the “C316Y/1a Fold Resistance” value in assay [4] came out at 247 fold.

Consider `COCCN(c1cc2oc(-c3ccc(F)cc3)c(-c3ncc[nH]3)c2cc1C1CC1)S(C)(=O)=O` [Example 47, N-[5-cyclopropyl-2-(4-fluorophenyl)-3-(1H-imidazol-2-yl)-1-benzofuran-6-yl]-N-(2-methoxyethyl)methanesulfonamide], for which the half-maximal effective concentration (EC50) was found to be 81.7 nM in assay [1] (setting [7]); 771 nM in assay [1] (setting [8]); 81.7 nM in assay [1] (setting [9]); 81.7 nM in assay [1] (setting [10]); 148 nM in assay [2] (setting [11]); 25.6 nM in assay [2] (setting [12]). Moreover, the concentration for a half-maximal effect (EC50) in assay [2] (setting [13]) turned out to be 25.6 nM. Moreover, the figures for the IC50 in assay [3], in assay [5] and in assay [6] were 1000 nM, 7.9 nM and 41 nM, respectively. Moreover, in assay [4], the “C316Y/1a Fold Resistance” value was determined as 126 fold.

Consider `CS(=O)(=O)N(CCCc1ccccc1)c1cc2oc(-c3ccc(F)cc3)c(-c3ncc[nH]3)c2cc1C1CC1` [Example 41, N-[5-cyclopropyl-2-(4-fluorophenyl)-3-(1H-imidazol-2-yl)-1-benzofuran-6-yl]-N-(3-phenylpropyl)methanesulfonamide], for which the EC50 in assay [1] (setting [7]) was found to be 73 nM; in assay [1] (setting [8]), 911 nM; in assay [1] (setting [9]) it was 73 nM; in assay [1] (setting [10]) it was 73 nM; in assay [2] (setting [11]), 364 nM; in assay [2] (setting [12]) it was 40 nM. Further, the EC50 in assay [2] (setting [13]) was determined as 40 nM. In addition, the IC50 in assay [3] stood at 58 nM; in assay [5], 5 nM; in assay [6], 16 nM. Moreover, the “C316Y/1a Fold Resistance” value in assay [4] was 12 fold.

For the compound `CS(=O)(=O)N(Cc1cccc(C(F)(F)F)c1)c1ccc2c(-c3ncc[nH]3)c(-c3ccccc3)oc2c1` [Example 32, N-[3-(1H-imidazol-2-yl)-2-phenyl-1-benzofuran-6-yl]-N-[3-(trifluoromethyl)benzyl]methanesulfonamide], the half-maximal effective concentration (EC50) in assay [1] (setting [7]) amounted to 2370 nM; in assay [1] (setting [9]) it was 2370 nM; in assay [1] (setting [10]), 2370 nM; in assay [2] (setting [11]) it was 79600 nM; in assay [2] (setting [12]) it was 599 nM; in assay [2] (setting [13]), 599 nM. In addition, the values for the IC50 in assay [3], in assay [5] and in assay [6] were 147 nM, 132 nM and 80.1 nM, respectively. In assay [4], the “C316Y/1a Fold Resistance” value stood at 1 fold.

Turning to `CC(C)CCCN(c1cc2oc(-c3ccc(F)cc3)c(-c3ncc[nH]3)c2cc1C1CC1)S(C)(=O)=O` [Example 40, N-[5-cyclopropyl-2-(4-fluorophenyl)-3-(1H-imidazol-2-yl)-1-benzofuran-6-yl]-N-(4-methylpentyl)methanesulfonamide], the half-maximal effective concentration (EC50) is 23 nM in assay [1] (setting [7]); 525 nM in assay [1] (setting [8]); 23 nM in assay [1] (setting [9]); 23 nM in assay [1] (setting [10]); 445 nM in assay [2] (setting [11]); 23 nM in assay [2] (setting [12]). In assay [2] (setting [13]), the EC50 was determined as 23 nM. The IC50 in assay [3] was determined as 70 nM; in assay [5], 6.5 nM; in assay [6], 19 nM. In addition, the “C316Y/1a Fold Resistance” value in assay [4] was 11 fold.
